Results from patent US20260125425A1, “Carrier Peptide Fragment and Use Thereof” (TOAGOSEI CO., LTD., priority 2022, published 2026).
Primed or numbered codes have the meaning given here. FAM″ = C-terminal FAM dye

Test system: HeLa cells
Experiment: cell membrane permeability in HeLa cells by flow cytometer
Assay type: cell-based, human
Details: 20-hour incubation; for MFI (median fluorescence intensity): 10 µM in culture solution, 0.5% DMSO, 37° C., FL2 detector
Experimental: As the eukaryotic cells, HeLa cells (established cell strain derived from a human cervical cancer cell) were used and the cell membrane permeability of the sample 1 was evaluated. In Example 1, the prepared sample solution I was used, and in Example 12, the FAM solution was used.
The HeLa cell was cultured in 10% fetal bovine serum (FBS)-containing Dulbecco's modified Eagle's medium (DMEM (Cat No. 044-29765, manufactured by FUJIFILM Wako Pure Chemical Corporation)), which is a culture medium.
The HeLa cell that adhered to a culture plate was cleaned with PBS and then, a 0.25%-trypsin/EDTA solution was added thereto, and incubation was performed for three minutes at 37° C. After the incubation, the aforementioned 10% FBS-containing DMEM was added to deactivate trypsin and then, five-minute centrifugal separation was performed at 150×g to precipitate the cells. After the supernatant generated by the centrifugal separation was removed, the 10% FBS-containing DMEM was added to the precipitate (cell pellet) to prepare a cell suspension of about 2×10^5 cells/mL. The cell suspension was added by 1 mL to a well of a commercially available six-hole (well) plate (manufactured by AGC TECHNO GLASS Co., Ltd.) so as to seed the cell (about 2× 10^5 cells/well). In addition, the 2 mM sample solution 1 was diluted with the 10% FBS-containing DMEM to prepare the sample solution 1 in which the concentration of the sample 1 was 20 μM. […]
Regarding the obtained cells (cell pellet), the cell membrane permeability of the sample 1 was analyzed using a flow cytometer. […]
Using the aforementioned flow cytometer, gating based on forward scatter (FSC) and side scatter (SSC) was performed to set a gate about a cell group to be analyzed, and the fluorescence intensity was measured about the cell group in this gate. […] The fluorescence intensity was measured using a fluorescence detector FL2 of the flow cytometer (optimum detection wavelength around 543 nm) capable of detecting the fluorescence wavelength of FAM. […]

Substance | MFI (median fluorescence intensity) | flow cytometer histogram (FIG. 1), cell membrane permeability (10 µM, compared to FAM alone (Example 2))
5 (6)-carboxyfluorescein [Example 2, reference compound] | 10.6 | 
Ac-RKLAVYWSTYKRSR-FAM (Ac-RKLAVYWSTYKRSR-{FAM″}) [Example 1] | 14.5 | shifted to the right side compared to the histogram according to Example 2
